Laboratory results published in US10703743B2 (priority 2010, dated 2020).
Where two headings read alike, the source gives them in different places.

Key:
MT-2 = MT-2 activity; format: cell-based; details: Homo sapiens, MT2
gp120-CD4 interaction = gp120-CD4 interaction (Human immunodeficiency virus type 1 group M subtype B, UniProt P03375); test: biochemical; format: binding, HIV-1
HIV-1 isolate HXBc2 = test: viral inhibition assay, HIV-1 isolate HXBc2; format: cell-based; details: Human immunodeficiency virus 1, TZM-b1, read-out: IC50 HXBc2
Method: (§1) In this assay, viral inhibition was determined by HIV Tat-induced luciferase (Luc) reporter gene expression after a single round of virus infection in TZM-b1 cells according to the method of Platt, et al., J. Virol. 1998, 72, 2855-64.

HIV-1 isolate BaL = test: viral inhibition assay, HIV-1 isolate BaL; format: cell-based
Method: as §1

HIV-1 isolate JR-FL = test: viral inhibition assay, HIV-1 isolate JR-FL; format: cell-based; details: Human immunodeficiency virus 1, TZM-b1, read-out: IC50 JR-FL
Method: as §1

HIV-1 isolate SF162 = test: viral inhibition assay, HIV-1 isolate SF162; format: cell-based; details: Human immunodeficiency virus 1, TZM-b1, read-out: IC50 SF162
Method: as §1

HIV-1 isolate ADA = test: viral inhibition assay, HIV-1 isolate ADA; format: cell-based
Method: as §1

| SMILES | IC50 (MT-2) [nM] | IC50 (gp120-CD4 interaction) [nM] | other results |
| --- | --- | --- | --- |
| COc1ccc(-c2ccc(CNC(=O)COCCOCCOCCOCCn3cc(COCCOCCOCCOCCNc4ccc([N+](=O)[O-])cc4[N+](=O)[O-])nn3)o2)c2[nH]cc(C(=O)C(=O)N3CCN(C(=O)c4ccccc4C)CC3)c12 | ~25000 | 5140 |  |
| COc1ccc(-c2ccc(CNC(=O)COCCOCCOCCOCCn3cc(COCCOCCOCCOCCNc4ccc([N+](=O)[O-])cc4[N+](=O)[O-])nn3)o2)c2[nH]cc(C(=O)C(=O)N3CCN(C(=O)c4cccc(C)c4)CC3)c12 | ~600 | 1360 |  |
| COc1ccc(-c2ccc(CNC(=O)COCCOCCOCCOCCn3cc(COCCOCCOCCOCCNc4ccc([N+](=O)[O-])cc4[N+](=O)[O-])nn3)o2)c2[nH]cc(C(=O)C(=O)N3CCN(C(=O)c4ccc(C)cc4)CC3)c12 | 25 | 447 |  |
| CCc1ccc(C(=O)N2CCN(C(=O)C(=O)c3c[nH]c4c(-c5ccc(CNC(=O)COCCOCCOCCOCCn6cc(COCCOCCOCCOCCNc7ccc([N+](=O)[O-])cc7[N+](=O)[O-])nn6)o5)ccc(OC)c34)CC2)cc1 | ~600 | 469 |  |
| COc1ccc(-c2ccc(CNC(=O)COCCOCCOCCOCCn3cc(COCCOCCOCCOCCNc4ccc([N+](=O)[O-])cc4[N+](=O)[O-])nn3)o2)c2[nH]cc(C(=O)C(=O)N3CCN(C(=O)c4ccc(C(C)C)cc4)CC3)c12 |  | 953 |  |
| COc1ccc(-c2ccc(CNC(=O)COCCOCCOCCOCCn3cc(COCCOCCOCCOCCNc4ccc([N+](=O)[O-])cc4[N+](=O)[O-])nn3)o2)c2[nH]cc(C(=O)C(=O)N3CCN(C(=O)c4ccc5ccccc5c4)CC3)c12 | ~5000 | 5240 |  |
| COc1ccc(-c2ccc(CNC(=O)COCCOCCOCCOCCn3cc(COCCOCCOCCOCCNc4ccc([N+](=O)[O-])cc4[N+](=O)[O-])nn3)o2)c2[nH]cc(C(=O)C(=O)N3CCN(C(=O)c4ccccc4O)CC3)c12 | 200 | 490 |  |
| COc1ccc(-c2ccc(CNC(=O)COCCOCCOCCOCCn3cc(COCCOCCOCCOCCNc4ccc([N+](=O)[O-])cc4[N+](=O)[O-])nn3)o2)c2[nH]cc(C(=O)C(=O)N3CCN(C(=O)c4cccc(O)c4)CC3)c12 | 90 | 200 |  |
| COc1ccc(-c2ccc(CNC(=O)COCCOCCOCCOCCn3cc(COCCOCCOCCOCCNc4ccc([N+](=O)[O-])cc4[N+](=O)[O-])nn3)o2)c2[nH]cc(C(=O)C(=O)N3CCN(C(=O)c4ccc(O)cc4)CC3)c12 | 90 | 239 |  |
| COc1ccc(-c2ccc(CNC(=O)COCCOCCOCCOCCn3cc(COCCOCCOCCOCCNc4ccc([N+](=O)[O-])cc4[N+](=O)[O-])nn3)o2)c2[nH]cc(C(=O)C(=O)N3CCN(C(=O)c4cc(O)cc(O)c4)CC3)c12 | 230 | 745 |  |
| COc1ccc(-c2ccc(CNC(=O)COCCOCCOCCOCCn3cc(COCCOCCOCCOCCNc4ccc([N+](=O)[O-])cc4[N+](=O)[O-])nn3)o2)c2[nH]cc(C(=O)C(=O)N3CCN(C(=O)c4ccc(CO)cc4)CC3)c12 | ~1000 | 422 |  |
| COc1ccc(-c2ccc(CNC(=O)COCCOCCOCCOCCn3cc(COCCOCCOCCOCCNc4ccc([N+](=O)[O-])cc4[N+](=O)[O-])nn3)o2)c2[nH]cc(C(=O)C(=O)N3CCN(C(=O)c4ccccn4)CC3)c12 | 48 | 620 |  |
| COc1ccc(-c2ccc(CNC(=O)COCCOCCOCCOCCn3cc(COCCOCCOCCOCCNc4ccc([N+](=O)[O-])cc4[N+](=O)[O-])nn3)o2)c2[nH]cc(C(=O)C(=O)N3CCN(C(=O)c4cccnc4)CC3)c12 | 1300 | 3700 |  |
| COc1ccc(-c2ccc(CNC(=O)COCCOCCOCCOCCn3cc(COCCOCCOCCOCCNc4ccc([N+](=O)[O-])cc4[N+](=O)[O-])nn3)o2)c2[nH]cc(C(=O)C(=O)N3CCN(C(=O)c4ccncc4)CC3)c12 | 9300 | 4700 |  |
| COc1ccnc2[nH]cc(C(=O)C(=O)N3CCN(C(=O)c4ccccc4)C[C@H]3C)c12 [BMS-378806, 4-benzoyl-1-(2-(4-methoxy-1H-pyrrolo(2,3-b)pyridin-3-yl)-1,2-dioxoethyl)-2-methyl-, (2R)-Piperazine, reference compound] |  |  | IC50 (HIV-1 isolate HXBc2): 31.9 nM; IC50 BaL (HIV-1 isolate BaL; HIV Tat-induced luciferase reporter gene expression after a single round of virus infection in TZM-b1 cells): dnc; IC50 (HIV-1 isolate JR-FL): 2600 nM; IC50 (HIV-1 isolate SF162): 359 nM; IC50 (HIV-1 isolate ADA; Human immunodeficiency virus 1, HIV Tat-induced luciferase reporter gene expression after a single round of virus infection in TZM-b1 cells, read-out: IC50 ADA): 344 nM |
| COc1ccc(-c2ccc(CNC(=O)COCCOCCOCCOCCOCCOCCn3cc(COCCOCCOCCOCCNc4ccc([N+](=O)[O-])cc4[N+](=O)[O-])nn3)o2)c2[nH]cc(C(=O)C(=O)N3CCN(C(=O)c4ccccc4)CC3)c12 [C5-furan] |  |  | IC50 (HIV-1 isolate HXBc2): 10.3 nM; IC50 (HIV-1 isolate BaL; Human immunodeficiency virus 1, BAL, TZM-b1, read-out: IC50 BaL): 34.8 nM; IC50 (HIV-1 isolate JR-FL): 0.72 nM; IC50 (HIV-1 isolate SF162): 309 nM; IC50 (HIV-1 isolate ADA; Human immunodeficiency virus 1, TZM-b1, read-out: IC50 ADA): 6.35 nM |
